Experimental findings from patent publication US8119667B2, “Carbonates of fenicol antibiotics” (Schering-Plough Animal Health Corporation, priority 2005, dated 2012) are described below.

Converted amounts (≈) assume the structure as drawn. Read-outs that look alike come from different tables or passages of the source.

Data set [1] is described as follows: Solubility in triacetin/benzyl alcohol 2:1 (volume/volume) solvent mixture. The class given is physicochemical. The settings on record: 20° C. How it is done:
Florfenicol parent drug was not soluble in triacetin/benzyl alcohol 2:1 (volume/volume) even at concentrations as low as 10% (weight/volume). […] The combination of prodrug of Example 14 at 275 mg/ml and florfenicol at 100 mg/ml was soluble in triacetin/benzyl alcohol 2:1 (volume/volume) and provided a stable solution with 30% (weight/volume) content of florfenicol (Table 4, supra, entry 12).

Data set [2] deals with naturally occurring bovine respiratory disease (BRD). Briefly: Therapeutic efficacy of a single SC dose in cattle with naturally occurring bovine respiratory disease. The class given is in vivo. The source says: Therapeutic efficacy of a single dose of Nuflor® (Schering-Plough Animal Health) was compared with a single dose of the prodrug compound of Example 2 after SC administration in cattle suffering from naturally occurring bovine respiratory disease (BRD).

Data set [3] is described as follows: In vivo release of florfenicol: plasma levels after prodrug administration to rats. Also noted: species or system Rat. The settings on record: IV. The protocol: The pharmacokinetic profile of active antibiotic after prodrug administration, in vivo, was determined, as follows: • 1. In vivo release of active antibiotic confirmed in two different animal species: • The prodrug compound of Example 18 was administered by an intravenous (“IV”) route to rat and cattle subjects, followed by determination of florfenicol concentrations in the plasma collected over time. • The data of Table 8, below, illustrates the plasma levels of florfenicol that resulted following IV administration of the prodrug compound of Example 18, to both rat and cattle. • 4. Time of release of active moiety: • a.

The nature of data set [4]: In vitro enzymatic release of parent florfenicol from prodrugs in bovine serum. The class given is in vitro ADME. The settings on record: 37° C. The source says: The ability of a prodrug derivative of a parent drug molecule to act efficiently in vivo as a source of the free parent drug determines the utility of a particular prodrug for treatment. The prodrug's ability to release the parent drug in vivo, in the presence of endogenous enzymes, can be determined by measuring the systemic levels of the parent drug after administration of the prodrug to the animal. This releasibility can also be assessed in vitro by measuring the release of the parent drug after mixing with animal whole blood, plasma or serum. Selected benzylic carbonate prodrugs of florfenicol were tested for release of florfenicol after in vitro mixing with bovine serum. […] A general trend of more lipophilic carbonates of florfenicol showing higher rates of degradation and release seems to be present among the compounds tested.
50 microliter of stock solution of carbonate pro-drug (10 mg/mL in DMSO) was added to 5 mL donor bovine serum and mixed. Aliquots of 400 microliter of the resulting solution were transferred into 1.5 mL plastic centrifuge tubes. Each plastic tube was placed into at 37° C. water bath for incubation. Samples were removed at 0, 1, 2, 4, 8, and 24 hours, and after addition of 400 microliter of acetonitrile to stop the reaction, rapidly stirred for 30 seconds. The precipitate was removed by centrifugation on an Eppendorf 5415G at 14000 rpm for 5 minutes. The clear supernatant solution was sampled for the HPLC analysis. The peak area of florfenicol was used to calculate the conversion of the prodrugs.

A short description of the next data set: Aqueous solubility. The conditions noted are these: aqueous medium (not further specified). In kind it is physicochemical. How it is done:
In some therapeutic applications florfenicol is administered in concentrated organic solution subcutaneously where it is known to form localized depot of the drug which results in the desired sustained release of the drug into the circulation. In such cases solubility of florfenicol in aqueous media represents one of important factors determining the rate of the sustained release. Another important factor affecting the sustained release of florfenicol from the subcutaneous depot site is the concentration of the dosing solution and the solvent composition of the formulation. Apart from the broader range of solvents which can be used for acceptable formulations of florfenicol benzylic carbonate prodrugs these prodrugs also allow a wide range of aqueous solubilities. Solubilities achieved with these prodrugs range from slightly to dramatically lower than that of florfenicol. Reduced aqueous solubilities of such prodrugs may be useful in controlling the rate of dissolution of the prodrug at the subcutaneous depot site and may allow achieving optimized sustained release of the parent drug.

Data set [5] is described as follows: In vivo release of florfenicol: plasma levels after prodrug administration to cattle. The conditions noted are these: for AUC: bovine, plasma, sc, 40 mg/kg. The protocol: The pharmacokinetic profile of active antibiotic after prodrug administration, in vivo, was determined, as follows: • 1. In vivo release of active antibiotic confirmed in two different animal species: • The prodrug compound of Example 18 was administered by an intravenous (“IV”) route to rat and cattle subjects, followed by determination of florfenicol concentrations in the plasma collected over time. • The data of Table 8, below, illustrates the plasma levels of florfenicol that resulted following IV administration of the prodrug compound of Example 18, to both rat and cattle. • 2. Active antibiotic is released from the prodrug irrespective of route of administration of the prodrug: • The data of Table 9, below, illustrates the plasma levels of florfenicol that resulted following administration of the prodrug compound of Example 2, by two different routes, i.e., IV and subcutaneous (“SC”). • 3. A dose-dependant increase in the release of active moiety: • The data of table 10, below, confirms a dose-dependent increase in the plasma levels of active antibiotic (florfenicol) following administration of rising doses of prodrug compound of Example 2. • 4. Time of release of active moiety: • a. […] The data of tables 13 and 14, below, confirms that the active antibiotic is quickly released from the prodrug compound of Example 2, when administered by the IV and SC routes in cattle. The release kinetics of the compound of Example 2 were compared with administration in a formulation with a triacetin/benzyl alcohol (ratio of 2:1 wt/vol) and with administration in a formulation of triacetin/2-pyrrolidinone (ratio of 2:1 wt/vol). The study was conducted in cattle (n=3).

A short description of data set [6]: Syringeability of dosing solutions (dripping-syringe method). The conditions noted are these: 418 mg/ml (35% weight by volume florfenicol); Triacetin/benzyl alcohol - 2:1; 15° C. The class given is physicochemical.

The molecule `CCOC(=O)O[C@H](c1ccc(S(C)(=O)=O)cc1)[C@@H](CF)NC(=O)C(Cl)Cl` [Example 2, (1R,2S)-2-(2,2-dichloroacetamido)-3-fluoro-1-(4-(methylsulfonyl)phenyl)propyl ethyl carbonate] registered a melting point of 110 to 112 °C. Moreover, the “Solubility at selected concentration of contained florfenicol” value (from here on “Solubility at selected concentration”) in data set [1] (10% weight/volume florfenicol) was “soluble”. For the same molecule, in data set [1] (20% weight/volume florfenicol), the “Solubility at selected concentration” value is “soluble”. In addition, in data set [1] (25% weight/volume florfenicol), the “Solubility at selected concentration” value is “soluble”. In addition, the “Solubility at selected concentration” value in data set [1] (30% weight/volume florfenicol) is on record as “soluble”. The “Solubility at selected concentration” value in data set [1] (35% weight/volume florfenicol) was “soluble”. Also, in data set [1] (37% weight/volume florfenicol), the “Solubility at selected concentration” value is on record as “soluble”. Besides, the “Solubility at selected concentration” value in data set [1] (40% weight/volume florfenicol) is on record as “insoluble”. In addition, the “Treatment Failure (on day 10)” value in data set [2] (single S/C dose equivalent to 40 mg/kg of florfenicol (Nuflor 40 mg/kg; Example 2 48 mg/kg), animals failing out of animals treated) is 5 out of 24. Also, the “Temp. (day 0)” value in data set [2] (single S/C dose equivalent to 40 mg/kg of florfenicol (Nuflor 40 mg/kg; Example 2 48 mg/kg), day 0) is 40.4 °C. The “Temp. (day 3)” value in data set [2] (single S/C dose equivalent to 40 mg/kg of florfenicol (Nuflor 40 mg/kg; Example 2 48 mg/kg), day 3) was 38.8 °C. The “Temp. (day 10)” value in data set [2] (single S/C dose equivalent to 40 mg/kg of florfenicol (Nuflor 40 mg/kg; Example 2 48 mg/kg), day 10) worked out at 38.7 °C. The “efficacy compared with Nuflor” value in data set [2] (single SC dose, cattle with BRD) is on record as “comparable”. For the same molecule, in data set [3], the “time of release of active antibiotic (florfenicol) after administration” value is on record as “less than half an hour”. Moreover, the “Florfenicol released from prodrugs (% of total) after treatment with bovine serum” value in data set [4] (0 h) is “BQL^a”. In data set [4] (1 h), the “Florfenicol released from prodrugs (% of total) after treatment with bovine serum” value was “BQL”. Besides, the “Florfenicol released from prodrugs (% of total) after treatment with bovine serum” value in data set [4] (2 h) is recorded as “BQL”. In the data set “Aqueous solubility”, this molecule registered a solubility of 690 µg/mL (≈ 1600 µM). In data set [5] (IV), the “time of release of active antibiotic (florfenicol) after administration” value is “less than half an hour”. In data set [5] (subcutaneous administration, read-out: Total Average AUC of the compound of Example 2 (unchanged prodrug)), the AUC came to 38000 ng·h/mL. In data set [5] (subcutaneous administration, read-out: Total Average AUC of the compound of Example 2 as Florfenicol Equivalent), the AUC came to 30400 ng·h/mL. Besides, the “converted to Florfenicol once absorbed from SC site” value in data set [5] (subcutaneous administration) was found to be 83.5%. Also, in data set [6], the “Syringeability measurement: Dripping time” value turned out to be 207 ± 3 s and the “Syringeability measurement: Relative to NUFLOR” value came to 0.89.
